We go through 15 compounds from patent EP0354714A2, “Pharmaceutical compositions containing polyaromatic compounds” (HADASSAH MEDICAL ORGANIZATION, priority 1988, dated 1990).

In general, % Inhibition refers to the drop in the measured response relative to a control, in per cent.

For experiment [1], the target named is T1, ESb mouse lymphoma heparanase (Mus musculus, UniProt Q6YGZ1).
T1 construct: endogenous in cells; host or cells: ESb mouse lymphoma cells
T1 sequence (Q6YGZ1 150-535 limits assumed): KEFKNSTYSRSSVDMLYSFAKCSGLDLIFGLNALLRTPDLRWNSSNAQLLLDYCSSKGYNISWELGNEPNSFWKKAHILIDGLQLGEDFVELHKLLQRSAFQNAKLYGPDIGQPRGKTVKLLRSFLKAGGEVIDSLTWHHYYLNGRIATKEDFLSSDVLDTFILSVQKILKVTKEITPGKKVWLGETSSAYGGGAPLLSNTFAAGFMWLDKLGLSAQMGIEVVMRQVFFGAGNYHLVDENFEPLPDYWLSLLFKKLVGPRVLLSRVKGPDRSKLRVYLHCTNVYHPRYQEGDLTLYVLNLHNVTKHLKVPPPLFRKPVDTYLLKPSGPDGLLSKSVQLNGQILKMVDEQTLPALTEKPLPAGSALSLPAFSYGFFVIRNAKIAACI
T1 sequence (Q6YGZ1 28-101 limits assumed): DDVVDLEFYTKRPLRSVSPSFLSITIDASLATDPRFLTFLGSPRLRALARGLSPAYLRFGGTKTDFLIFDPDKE
Nature of the experiment: Inhibition of heparanase degradation of 35S-labelled ECM. The format is biochemical. To be noted: 10 µgr/ml, 24 hours; for Total low-mol-wt. HS fragments released by heparanase (cpm): control 17,756 cpm. The method, then: The ability of several of the above mentioned compounds to inhibit lymphoma-cell derived heparanse was tested in the assay system described by Vlodavsky et al. (Cancer Research. 43: 2704-2711 (1983). ³⁵S labled ECM was incubated for 24 hours with ESb mouse lymphoma heparanase in the presence of 10 ugr ml of the indicated compounds. Degradation of the sulfated glycosaminoglycan was followed by gel filtration of the supernatants. Heparanase activity is expressed as the total amount of labled low-molecular-weight fragments released from the ECM substrate. The results are summarized in Table III. Table III

Experiment [2] is described as follows: PTT in rats after oral administration. Format: in vivo. To be noted: 1 ml of 10%-20% solution, after 2-4 hours, around 20 sec. at time 0. The text has this: Moreover, since aluminon can be absorbed through the gastrointestinal tract, it can be used as an orally administratable anticoagulant (as opposed to heparin which has to be given by injection).
Experiment [3] has as its system Bovine aortal smooth-muscle cells. Briefly: 3H thymidine incorporation in smooth muscle cells (resting, FGF- or thrombin-stimulated). The following applies: for H³ thymidine incorporation per well (cpm. mean of duplicates) +FGF: FGF 250 ngr/ml, without aluminon 22,574; for H³ thymidine incorporation per well (cpm. mean of duplicates) +FGF / H³ thymidine incorporation per well (cpm. mean of duplicates) Control / H³ thymidine incorporation per well (cpm. mean of duplicates) +Thrombin: 2 days; for H³ thymidine incorporation per well (cpm. mean of duplicates) Control: resting cells, without aluminon 9.823; for H³ thymidine incorporation per well (cpm. mean of duplicates) +Thrombin: thrombin 10⁻⁶M, without aluminon 54,000. The format is cell-based. The method, then: Bovine aortal smooth-muscle cells were grown in tissue culture plates in the presence of glucose-rich medium (H-21). The cultures (around 35x10³ cells/well in 24 wells' plates) were initially supplemented with 10% fetal calf serum (FCS) for 2-3 days. The cell nutrition was then replaced by a serum-deprived medium (H-21 plus 0.2% FCS) in order to test the effect of defined growth factors on the proliferation of smooth-muscle cells and their possible inhibition by the compounds with heparin-like activity.
In the following representative experiment, the cells transferred to the serum-deprived medium were grown in the presence of thrombin (10⁻⁶M) or FGF (partially purified from bovine brain, 250 ngr/ml). Various concentrations of aluminon were added to the thrombin or FGF-treated cells and to non-treated control cultures. ³H thymidine was also added to all wells for an incubation period of 2 days. The cultures were then harvested and the ³H thymidine incorporated into DNA was measured.

The subject of the next experiment is normal pooled plasma. Nature of the experiment: Activated partial thromboplastin time (APTT) in normal pooled plasma. Format: biochemical. To be noted: Concentration 0.2 mg/mL; normal pooled plasma alone 25 - 28 sec. The method, then: Measurement of Activated Partial Thromboplastin Time (APTT)
Utilizing the following procedure, the activated partial thromboplastin time (APTT) was measured for each of comparative compounds A-D:
To an assay cuvette was added 100 ul of normal pooled plasma (George King Biomedical Inc., Kansas) and 100 ul of a solution containing one of the above compounds in aqueous 50 mM Tris hydrochloride at pH 7.5 (0.2 mg of sample in one mL buffer). The sample was placed in a MLA coagulation timer which automatically maintained the sample at 37°C for 2.5 minutes, injected 100 ul of actin activated cephaloplastin reagent, kept 5 minutes, injected 100 ul of 3 mM CaCl, and the clot formation was determined photometrically and the time recorded.

Experiment [4] can be described thus: Minimum concentration that significantly prolongs APTT versus standard buffer solution. The following applies: concentration at which the polymeric components of the dye significantly prolonged APTT versus standard buffer solution. Format: biochemical.
Another experiment has as its target T2, lipoprotein lipase (LPL) (Rattus norvegicus, UniProt Q06000).
T2 construct: endogenous in cells; host or cells: F1 heart cell cultures from newborn rat hearts (mainly non-beating mesenchymal cells)
T2 sequence (Q06000 28-474): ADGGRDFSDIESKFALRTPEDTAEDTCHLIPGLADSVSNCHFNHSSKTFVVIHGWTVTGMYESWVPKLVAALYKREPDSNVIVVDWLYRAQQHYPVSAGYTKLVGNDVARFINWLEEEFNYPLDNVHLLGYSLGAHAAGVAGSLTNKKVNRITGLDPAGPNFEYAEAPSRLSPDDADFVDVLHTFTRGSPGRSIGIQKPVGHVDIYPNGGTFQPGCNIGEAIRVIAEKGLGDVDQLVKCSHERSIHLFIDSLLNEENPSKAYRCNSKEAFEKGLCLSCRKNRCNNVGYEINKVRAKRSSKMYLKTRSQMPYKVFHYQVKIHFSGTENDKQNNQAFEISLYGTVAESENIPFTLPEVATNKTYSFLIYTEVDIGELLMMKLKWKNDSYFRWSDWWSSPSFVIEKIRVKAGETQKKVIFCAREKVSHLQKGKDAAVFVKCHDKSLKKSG
Nature of the experiment: LPL activity in cultured heart cells and their medium after 24 hrs incubation. The format is cell-based. To be noted: heart cells; for LPL activity: Total: control 3237; for LPL activity: Medium / LPL activity: Cells: mean±SEM of triplicates; for LPL activity: Medium: control 817±14; for LPL activity: Cells: control 2420±93. The protocol:
The enzyme LPL participate in the process of lipid transfer from the bloodstream to the tissues, LPL is bound to the external surface of cells via its association with cell-membrane glycosaminoglycans. Cultured heart cells is a powerful system in the study of the enzyme turn-over and the exploration of ways to manipulate its level since these cells are active in the biosynthesis of LPL, in addition to the surface binding of the enzyme.
F₁ heart cell cultures were prepared from newborn rat hearts as previously described (Chajek, T. et al., Biochem. Biophys. Acta 528, 456-474 (1978)). They consisted mainly of non-beating mesenchymal cells and were used 8-12 days after their isolation.
The enzyme activity was determined on aliquots of medium and of homogenates of cells which had been released from the petri dish with a rubber policeman in 1 ml of 0.025 M NH₃/NH₄Cl buffer (pH 8.1) containing 1 unit/ml of heparin. The assay system consisted of 0.1 ml of medium or 0.1 ml of cell homogenate ([…]) and 0.1 ml of substrate containing labeled triolein, prepared according to the method of Nilsson-Ehle and Schotz, (J. Lipid Res. 17, 536-541 (1976)). Incubations were carried out at 37°C for 45 min. The reaction was stopped by the addition of methanol/chloroform/heptane (1.4:1.25:1.v/v) and the extraction of fatty acids was performed according to the method of Belfrage and Vaughan (J. Lipid Res. 10, 341-344 (1969), as modified by Nilsson-Ehle and Schotz. Enzyme activity was calculated according to the formula of Nilsson-Ehle and Schotz.

Where only a bound is given, the exact number is not on record here.

As for `O=C(O)C1=CC(=C(c2ccc(O)c(C(=O)O)c2)c2ccc(O)c(C(=O)O)c2)C=CC1=O` [Aluminon, aurintricarboxylic acid], in experiment [1], the “% Inhibition” value is on record as 78%. The compound further yielded a PTT in experiment [2] of more than 200 s. In addition, the “H³ thymidine incorporation per well (cpm. mean of duplicates) +FGF” value in experiment [3] (Aluminon 0.2 µgr/ml) is listed as 22,256 cpm; in experiment [3] (Aluminon 2 µgr/ml) it was 13,089 cpm; in experiment [3] (Aluminon 10 µgr/ml), 6,846 cpm; in experiment [3] (Aluminon 20 µgr/ml) it was 6,745 cpm. The “H³ thymidine incorporation per well (cpm. mean of duplicates) Control” value in experiment [3] (Aluminon 0.2 µgr/ml) is on record as 8,425 cpm; in experiment [3] (Aluminon 2 µgr/ml), 5,120 cpm; in experiment [3] (Aluminon 10 µgr/ml) it was 4,105 cpm; in experiment [3] (Aluminon 20 µgr/ml), 4,343 cpm. Besides, the “H³ thymidine incorporation per well (cpm. mean of duplicates) +Thrombin” value in experiment [3] (Aluminon 0.2 µgr/ml) is recorded as 46,857 cpm; in experiment [3] (Aluminon 2 µgr/ml) it was 14,064 cpm; in experiment [3] (Aluminon 10 µgr/ml), 6,877 cpm; in experiment [3] (Aluminon 20 µgr/ml), 5,705 cpm. For the same compound, in experiment [3] (aluminon concentration of 2 µgr/ml (∼4x10⁻⁶M)), the inhibition entry is “More than 40%”.
Regarding `O=C(O)C1=CC(=C(c2ccc(O)c(C(=O)O)c2)c2ccc(O)c(C(=O)O)c2)C=CC1=O` [Comparative Compound C], the “APTT” value in the experiment on normal pooled plasma is 28 s.
As to `CN(C)c1ccc(C(=C2C=CC(=[N+](C)C)C=C2)c2ccc(N(C)C)cc2)cc1` [Crystal Violet], in experiment [4], the “Minimum Final Concentration” value was 8.3 µg/mL.
Still for that read-out and setting: with `CCN(CC)c1ccc(C(=C2C=CC(=[N+](CC)CC)C=C2)c2ccc(N(CC)CC)cc2)cc1.[Cl-]` [Ethyl Violet] the figure was 50.0 µg/mL.
Take `Cc1cc(-c2ccc(/N=N/c3ccc4c(S(=O)(=O)[O-])cc(S(=O)(=O)[O-])c(N)c4c3O)c(C)c2)ccc1/N=N/c1ccc2c(S(=O)(=O)[O-])cc(S(=O)(=O)[O-])c(N)c2c1O.[Na+].[Na+].[Na+].[Na+]` [Evan's Blue]: at lipoprotein lipase (LPL) (Evan's Blue 10⁻³ M), the “% increase in the total” value was “+139.4%”, the “LPL activity: Total” value amounted to 7749 m mole FFA/h/dish, the “LPL activity: Medium” value is reported as 6051±435 m mole FFA/h/dish and the “LPL activity: Cells” value came to 1698±184 m mole FFA/h/dish. Further, on lipoprotein lipase (LPL) (Evan's Blue 10⁻⁴ M), the “% increase in the total” value is given as “+61.6%”, the “LPL activity: Total” value is listed as 5230 m mole FFA/h/dish, the “LPL activity: Medium” value amounted to 2783±194 m mole FFA/h/dish and the “LPL activity: Cells” value stood at 2447±48 m mole FFA/h/dish. For the same compound, at lipoprotein lipase (LPL) (Evan's Blue 10⁻⁵ M), the “% increase in the total” value is recorded as “+32.5%”, the “LPL activity: Total” value is recorded as 4288 m mole FFA/h/dish, the “LPL activity: Medium” value is recorded as 1531±182 m mole FFA/h/dish and the “LPL activity: Cells” value stood at 2757±114 m mole FFA/h/dish. In experiment [1], the “% Inhibition” value is 60% and the “Total low-mol-wt. HS fragments released by heparanase (cpm)” value (from here on “Total low-mol-wt. HS fragments released”) is recorded as 6,986 cpm.
For the compound `CCN(Cc1cccc(S(=O)(=O)O)c1)c1ccc(C(=C2C=CC(=[N+](CC)Cc3cccc(S(=O)(=O)O)c3)C=C2)c2ccc(O)cc2S(=O)(=O)[O-])cc1` [Fast Green], in experiment [1], the “% Inhibition” value worked out at 32% and the “Total low-mol-wt. HS fragments released” value is 12,139 cpm.
On to `CN(C)c1ccc(C(=C2C=CC(=[N+](C)C)C=C2)c2ccccc2)cc1` [Malachite Green], for which the “Minimum Final Concentration” value in experiment [4] was 150.0 µg/mL.
Regarding `O=S(=O)(O)c1ccc(N=C2C=CC(=C(c3ccc(Nc4ccc(S(=O)(=O)O)cc4)cc3)c3ccc(Nc4ccc(S(=O)(=O)O)cc4)cc3)C=C2)cc1` [Methyl Blue], in experiment [1], the “% Inhibition” value was found to be 23% and the “Total low-mol-wt. HS fragments released” value was 13,676 cpm. Besides, in experiment [4], the “Minimum Final Concentration” value stood at 100.0 µg/mL.
As to `CN(C)c1ccc(C(=C2C=CC(=[N+](C)C)C=C2)c2ccc([N+](C)(C)C)cc2)cc1.[Cl-].[Cl-]` [Methyl Green], the “Minimum Final Concentration” value in experiment [4] is 50.0 µg/mL.
As to `Cc1cc(C(=C2C=CC(=N)C=C2)c2ccc(N)cc2)ccc1N` [Rosaniline Chloride], in experiment [4], the “Minimum Final Concentration” value is 12.5 µg/mL.
Regarding `Cc1cc2nc3cc(C)c(N)cc3[n+](-c3ccccc3)c2cc1N.[Cl-]` [Safranin O], in experiment [4], the “Minimum Final Concentration” value was found to be 150.0 µg/mL.
Same read-out and setting: the value for Aniline Blue was 150.0 µg/mL; that for Basic Fuchsin was 50.0 µg/mL; that for Brilliant Cresyl Blue was 150.0 µg/mL.
The same measure, in the same setting: with Methyl Violet the figure was 75.0 µg/mL.
